Some test systems named below: ACHN renal; MALME-3M melanoma; NCI/ADR-RES ovarian; HCT-15 colon; UO-31 renal; SF-539 CNS; SF-295 CNS; A498 renal; PC-3 prostate; SK-MEL-28 melanoma.
Experiment in all cases: growth of human tumour cells (NCI), 48 h

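Assay format: 96-well plates, 48-hour exposure. Abbreviation: GI50, concentration required for 50% inhibition of growth. TGI marks complete inhibition of growth.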

For the molecule `CC(C)N1C(NNC(=O)c2cnccn2)=NS(=O)(=O)c2ccccc21`, the GI50 with ACHN renal, in the assay with MALME-3M melanoma, with NCI/ADR-RES ovarian, in the assay with HCT-15 colon, in the assay on UO-31 renal and with SF-539 CNS was above 100 µM each time. For the same molecule, the GI50 with SF-295 CNS, with A498 renal, in the assay with PC-3 prostate and in the assay with SK-MEL-28 melanoma was above 100 µM each time. Also, the TGI in the assay on ACHN renal, with MALME-3M melanoma, in the assay on NCI/ADR-RES ovarian, in the assay with HCT-15 colon, with UO-31 renal and with SF-539 CNS was above 100 µM each time. Also, the TGI in the assay with SF-295 CNS, with A498 renal, in the assay with PC-3 prostate and in the assay on SK-MEL-28 melanoma was above 100 µM in each case.

In the case of `COc1cc2c3c(n(C)c(=O)c2cc1OC)-c1cc2c(cc1/C3=C\C(N)CN)OCO2` (centres undefined), the GI50 in the assay with ACHN renal was 0.73 µM; in the assay with MALME-3M melanoma, 0.284 µM; with NCI/ADR-RES ovarian, above 74.8 µM; in the assay on HCT-15 colon, 2.16 µM; with UO-31 renal, 4.44 µM; in the assay with SF-539 CNS, 1.39 µM. Also, the GI50 was 1.31 µM in the assay on SF-295 CNS, 1.37 µM with A498 renal, 5.27 µM with PC-3 prostate and 4.45 µM with SK-MEL-28 melanoma. Further, the TGI in the assay on ACHN renal is 2.82 µM; in the assay with MALME-3M melanoma it was 4.04 µM; in the assay with NCI/ADR-RES ovarian, above 100 µM; in the assay on HCT-15 colon, 16.6 µM; in the assay on UO-31 renal, above 36.5 µM; with SF-539 CNS it was 4.49 µM. For the same molecule, the TGI with SF-295 CNS is 7.79 µM; with A498 renal it was 9.77 µM; in the assay with PC-3 prostate it was 20.5 µM; in the assay with SK-MEL-28 melanoma it was 41.8 µM.

With `c1ccc(CSc2nnc3c4ccccc4c4ccccc4c3n2)cc1`, the TGI with ACHN renal, with MALME-3M melanoma, in the assay with NCI/ADR-RES ovarian, in the assay with HCT-15 colon, in the assay on UO-31 renal and in the assay with SF-539 CNS was above 100 µM in each case. For the same molecule, the TGI was 62.3 µM in the assay on SF-295 CNS, above 100 µM in the assay on A498 renal, above 100 µM with PC-3 prostate and above 100 µM in the assay with SK-MEL-28 melanoma.

`COC(=O)C(F)C(Br)C(=O)OC` (centres undefined): the TGI came to 3.39 µM in the assay on ACHN renal; 16.5 µM in the assay with MALME-3M melanoma; 8.93 µM in the assay on NCI/ADR-RES ovarian; 3.84 µM in the assay with HCT-15 colon; 3.52 µM with UO-31 renal; 20.4 µM in the assay with SF-539 CNS. Also, the TGI came to 70.1 µM with SF-295 CNS, 43.9 µM in the assay on A498 renal, 10.1 µM in the assay on PC-3 prostate and 34.3 µM in the assay with SK-MEL-28 melanoma.

On to `O=C(OCCBr)c1ccc(Cl)c([N+](=O)[O-])c1`, for which the GI50 with ACHN renal was 18.8 µM; in the assay with MALME-3M melanoma, 19.1 µM; with NCI/ADR-RES ovarian, 21.4 µM; in the assay on HCT-15 colon it was 16.3 µM; in the assay with UO-31 renal, 2.72 µM; in the assay with SF-539 CNS, 19.6 µM. Also, the GI50 with SF-295 CNS was 15.5 µM; in the assay with A498 renal it was 17.7 µM; in the assay on PC-3 prostate it was 5.23 µM; in the assay on SK-MEL-28 melanoma it was 2.51 µM. The TGI was 34.4 µM in the assay on ACHN renal; 43.4 µM in the assay on MALME-3M melanoma; 53.1 µM in the assay on NCI/ADR-RES ovarian; 32.4 µM in the assay on HCT-15 colon; 7.85 µM in the assay on UO-31 renal; 36 µM with SF-539 CNS. Further, the TGI in the assay on SF-295 CNS worked out at 30.5 µM; with A498 renal, 42.4 µM; in the assay on PC-3 prostate, 12.8 µM; in the assay with SK-MEL-28 melanoma it was 5.42 µM.

Turning to `Nc1n[nH]c2ccc([C@@H]3Nc4ccc5[nH]ncc5c4[C@H]4C5C=CC(C5)[C@@H]34)cc12` (some centres undefined), the GI50 in the assay with ACHN renal is 0.562 µM; in the assay with MALME-3M melanoma it was 0.655 µM; in the assay with NCI/ADR-RES ovarian it was 0.298 µM; in the assay with HCT-15 colon, 0.316 µM; with UO-31 renal, 0.769 µM; in the assay with SF-539 CNS, 0.271 µM. Also, the GI50 is 0.172 µM in the assay with SF-295 CNS, 0.0876 µM in the assay with A498 renal, 0.407 µM in the assay with PC-3 prostate and 1.59 µM in the assay with SK-MEL-28 melanoma. Besides, the TGI with ACHN renal was found to be 47.8 µM; in the assay with MALME-3M melanoma, 35.3 µM; in the assay on NCI/ADR-RES ovarian, 2.28 µM; in the assay on HCT-15 colon, 13.5 µM; in the assay with UO-31 renal, 31.7 µM; in the assay on SF-539 CNS it was 1.1 µM. The TGI in the assay with SF-295 CNS came out at 4.38 µM; in the assay on A498 renal, 0.492 µM; in the assay with PC-3 prostate it was 22.7 µM; with SK-MEL-28 melanoma, 31.9 µM.

On to `O=C(N/N=C/c1cc([N+](=O)[O-])ccc1O)c1cccc2ccccc12`, for which the GI50 in the assay with ACHN renal is 3.08 µM; with MALME-3M melanoma, 3.12 µM; with NCI/ADR-RES ovarian it was 2.32 µM; with HCT-15 colon it was 2.55 µM; in the assay with UO-31 renal it was 1.8 µM; in the assay on SF-539 CNS, 3.8 µM. Moreover, the GI50 in the assay with SF-295 CNS is 2.77 µM; in the assay with A498 renal, 2.71 µM; in the assay with PC-3 prostate it was 6.85 µM; in the assay on SK-MEL-28 melanoma it was 3.11 µM. For the same molecule, the TGI is 44.7 µM with ACHN renal; 21.7 µM with MALME-3M melanoma; 51.6 µM in the assay on NCI/ADR-RES ovarian; above 100 µM with HCT-15 colon; 19.5 µM in the assay with UO-31 renal; 24.2 µM with SF-539 CNS. The TGI turned out to be 20.9 µM with SF-295 CNS, 29.3 µM in the assay with A498 renal, 64.9 µM in the assay with PC-3 prostate and 80.8 µM with SK-MEL-28 melanoma.

For the molecule `CCN1C(=O)N(CC)C2C1NN=c1s/c(=C\c3cc4ccccc4[nH]3)c(=O)n12` (centres undefined), the GI50 with ACHN renal was below 0.0157 µM; in the assay on MALME-3M melanoma, 0.0388 µM; in the assay with NCI/ADR-RES ovarian, 0.0213 µM; with HCT-15 colon, 0.0324 µM; in the assay on UO-31 renal, 0.0523 µM; with SF-539 CNS it was below 0.01 µM. Further, the GI50 with SF-295 CNS is below 0.0112 µM; in the assay with A498 renal, 0.0108 µM; in the assay on PC-3 prostate, below 0.015 µM; with SK-MEL-28 melanoma it was 2.77 µM. Moreover, the TGI with ACHN renal is 20.3 µM; in the assay with MALME-3M melanoma it was 36.9 µM; with NCI/ADR-RES ovarian it was 2.3 µM; with HCT-15 colon, above 100 µM; with UO-31 renal, 10.4 µM; in the assay with SF-295 CNS it was 14.8 µM. Moreover, the TGI in the assay with A498 renal was 0.0628 µM; with PC-3 prostate, above 100 µM; with SK-MEL-28 melanoma, above 83 µM.

Source of the values: PubChem BioAssay (NCI).
